Data published in PubChem BioAssay AID280 (DTP/NCI, 2004).
Values joined by “and” are separate entries in the source; they are usually repeats but may differ in a detail not shown here. Equal values may be shown once. Inconclusive results and toxic doses are left out.

System: nude mice, LOX melanoma ip, survival T/C
Experiment: NCI In Vivo Anticancer Drug Screen. Data for tumor model Human Amelanotic Melanoma (LOX) (intraperitoneal) in NU/NU BALB/C (nude) mice
Conditions: endpoint: median survival time, higher = longer survival
Protocol: The antitumor activity of compounds was measured in mice bearing transplantable tumors. Survival or tumor size were measured and the results are expressed as the measurement made in the treated group (T) divided by the measurement made in the vehicle treated control group (C). The tumor model used in this assay is Human Amelanotic Melanoma (LOX) (intraperitoneal) in NU/NU BALB/C (nude) mice

[1] = dose: 75.0 mg/kg/injection, schedule: Q04DX003 (ip), vehicle: Klucel (hydroxypropylcellulose) (HPC)
[2] = dose: 150.0 mg/kg/injection, schedule: Q04DX003 (ip), vehicle: Klucel (hydroxypropylcellulose) (HPC)

CC(=O)/C(=C\c1ccc(Cl)c(Cl)c1)C(=O)CCN(C)C
T/C (dose: 6.25 mg/kg/injection, schedule: Q04DX003 (ip), vehicle: suspension in saline): 96 % of control | T/C (dose: 12.5 mg/kg/injection, schedule: Q04DX003 (ip), vehicle: suspension in saline): 102 % of control | T/C (dose: 25.0 mg/kg/injection, schedule: Q04DX003 (ip), vehicle: suspension in saline): 96 % of control | T/C (dose: 50.0 mg/kg/injection, schedule: Q04DX003 (ip), vehicle: suspension in saline): 86 % of control | T/C (dose: 100.0 mg/kg/injection, schedule: Q04DX003 (ip), vehicle: suspension in saline): 122 % of control

N/C(=N\OC(=O)Nc1ccc(CSc2ccc(Cl)cc2)o1)c1ccccn1
T/C (dose: 18.75 mg/kg/injection, schedule: Q04DX003 (ip), vehicle: Klucel (hydroxypropylcellulose) (HPC)): 97 % of control | T/C (dose: 37.5 mg/kg/injection, schedule: Q04DX003 (ip), vehicle: Klucel (hydroxypropylcellulose) (HPC)): 97 % of control | T/C [1]: 92 % of control | T/C [2]: 102 % of control

CC[C@@]1(O)C(=O)OCc2c1cc1n(c2=O)Cc2cc3c(N)cccc3nc2-1
T/C (dose: 0.5 mg/kg/injection, schedule: Q04DX003 (ip), vehicle: saline with Tween-80): 213 % of control | T/C (dose: 0.86 mg/kg/injection, schedule: Q04DX003 (ip), vehicle: saline with Tween-80): 314 % of control | T/C (dose: 1.0 mg/kg/injection, schedule: Q04DX003 (ip), vehicle: saline with Tween-80): 327 % of control | T/C (dose: 1.44 mg/kg/injection, schedule: Q04DX003 (ip), vehicle: saline with Tween-80): 314 % of control | T/C (dose: 2.0 mg/kg/injection, schedule: Q04DX003 (ip), vehicle: saline with Tween-80): 327 % of control | T/C (dose: 2.4 mg/kg/injection, schedule: Q04DX003 (ip), vehicle: saline with Tween-80): 314 % of control | T/C (dose: 4.0 mg/kg/injection, schedule: Q04DX003 (ip), vehicle: saline with Tween-80): 314 % of control and 327 % of control

CC#CCOCC(O)CCl (stereo not drawn)
T/C (dose: 37.5 mg/kg/injection, schedule: Q04DX003 (ip), vehicle: saline): 97 % of control | T/C (dose: 75.0 mg/kg/injection, schedule: Q04DX003 (ip), vehicle: saline): 99 % of control | T/C (dose: 150.0 mg/kg/injection, schedule: Q04DX003 (ip), vehicle: saline): 102 % of control | T/C (dose: 300.0 mg/kg/injection, schedule: Q04DX003 (ip), vehicle: saline): 106 % of control | T/C (dose: 600.0 mg/kg/injection, schedule: Q04DX003 (ip), vehicle: saline): 110 % of control

O=NNc1cnccn1
T/C (dose: 11.3 mg/kg/injection, schedule: Q01DX009 (ip), vehicle: other): 110 % of control | T/C (dose: 11.3 mg/kg/injection, schedule: Q03HX008 (ip), vehicle: other): 117 % of control | T/C (dose: 12.5 mg/kg/injection, schedule: Q04DX003 (ip), vehicle: water): 110 % of control | T/C (dose: 16.9 mg/kg/injection, schedule: Q01DX005 (iv), vehicle: other): 97 % of control | T/C (dose: 16.9 mg/kg/injection, schedule: Q01DX009 (ip), vehicle: other): 153 % of control | T/C (dose: 25.3 mg/kg/injection, schedule: Q01DX009 (ip), vehicle: other): 175 % of control | T/C (dose: 25.3 mg/kg/injection, schedule: Q03HX008 (ip), vehicle: other): 159 % of control | T/C (dose: 29.7 mg/kg/injection, schedule: Q04DX003 (ip), vehicle: water): 201 % of control | T/C (dose: 38.0 mg/kg/injection, schedule: Q01DX005 (iv), vehicle: other): 153 % of control | T/C (dose: 38.0 mg/kg/injection, schedule: Q01DX009 (ip), vehicle: other): 189 % of control | T/C (dose: 38.0 mg/kg/injection, schedule: Q04DX003 (iv), vehicle: other): 123 % of control | T/C (dose: 44.5 mg/kg/injection, schedule: Q04DX003 (ip), vehicle: water): 180 % of control and 189 % of control | T/C (dose: 50.0 mg/kg/injection, schedule: Q04DX003 (ip), vehicle: water): 156 % of control | T/C (dose: 57.0 mg/kg/injection, schedule: Q01DX001 (ip), vehicle: other): 116 % of control | T/C (dose: 57.0 mg/kg/injection, schedule: Q01DX001 (iv), vehicle: other): 115 % of control | T/C (dose: 57.0 mg/kg/injection, schedule: Q01DX005 (iv), vehicle: other): 191 % of control | T/C (dose: 57.0 mg/kg/injection, schedule: Q01DX009 (ip), vehicle: other): 220 % of control | T/C (dose: 57.0 mg/kg/injection, schedule: Q04DX003 (ip), vehicle: other): 170 % of control | T/C (dose: 57.0 mg/kg/injection, schedule: Q04DX003 (iv), vehicle: other): 154 % of control | T/C (dose: 66.7 mg/kg/injection, schedule: Q04DX003 (ip), vehicle: water): 200 % of control and 221 % of control | T/C (dose: 85.4 mg/kg/injection, schedule: Q01DX001 (iv), vehicle: other): 120 % of control | T/C (dose: 85.4 mg/kg/injection, schedule: Q04DX003 (ip), vehicle: other): 185 % of control | T/C (dose: 85.4 mg/kg/injection, schedule: Q04DX003 (iv), vehicle: other): 159 % of control | T/C (dose: 85.4 mg/kg/injection, schedule: Q08DX002 (ip), vehicle: other): 150 % of control | T/C (dose: 100.0 mg/kg/injection, schedule: Q04DX003 (ip), vehicle: water): 232 % of control and 250 % of control and 301 % of control | T/C (dose: 128.0 mg/kg/injection, schedule: Q01DX001 (ip), vehicle: other): 170 % of control | T/C (dose: 128.0 mg/kg/injection, schedule: Q04DX003 (ip), vehicle: other): 170 % of control | T/C (dose: 128.0 mg/kg/injection, schedule: Q04DX003 (iv), vehicle: other): 91 % of control | T/C (dose: 128.0 mg/kg/injection, schedule: Q08DX002 (ip), vehicle: other): 180 % of control | T/C (dose: 150.0 mg/kg/injection, schedule: Q04DX003 (ip), vehicle: water): 248 % of control and 296 % of control | T/C (dose: 192.0 mg/kg/injection, schedule: Q01DX001 (ip), vehicle: other): 180 % of control | T/C (dose: 192.0 mg/kg/injection, schedule: Q08DX002 (ip), vehicle: other): 300 % of control | T/C (dose: 200.0 mg/kg/injection, schedule: Q04DX003 (ip), vehicle: water): 121 % of control

[Cl][Pt][Cl].[NH-]C(CO)C(=O)O (stereo not drawn)
T/C (dose: 9.38 mg/kg/injection, schedule: Q04DX003 (ip), vehicle: water): 119 % of control | T/C (dose: 18.75 mg/kg/injection, schedule: Q04DX003 (ip), vehicle: water): 114 % of control | T/C (dose: 37.5 mg/kg/injection, schedule: Q04DX003 (ip), vehicle: water): 123 % of control

O=C1CC2(C(=O)N1CN1CCOCC1)c1ccccc1-c1ccccc12
T/C [1]: 102 % of control | T/C [2]: 98 % of control | T/C (dose: 300.0 mg/kg/injection, schedule: Q04DX003 (ip), vehicle: Klucel (hydroxypropylcellulose) (HPC)): 103 % of control | T/C (dose: 600.0 mg/kg/injection, schedule: Q04DX003 (ip), vehicle: Klucel (hydroxypropylcellulose) (HPC)): 120 % of control

CC(C)(C)NC(C1=CC(C)(C)c2ccccc2C1=O)c1ccccc1 (stereo not drawn)
T/C (dose: 25.0 mg/kg/injection, schedule: Q04DX003 (ip), vehicle: Klucel (hydroxypropylcellulose) (HPC)): 107 % of control | T/C (dose: 50.0 mg/kg/injection, schedule: Q04DX003 (ip), vehicle: Klucel (hydroxypropylcellulose) (HPC)): 113 % of control | T/C (dose: 100.0 mg/kg/injection, schedule: Q04DX003 (ip), vehicle: Klucel (hydroxypropylcellulose) (HPC)): 110 % of control | T/C (dose: 200.0 mg/kg/injection, schedule: Q04DX003 (ip), vehicle: Klucel (hydroxypropylcellulose) (HPC)): 118 % of control

NC(=S)N/N=C/c1cc(=O)c2cc(Cl)ccc2o1
T/C (dose: 75.0 mg/kg/injection, schedule: Q04DX003 (ip), vehicle: other): 107 % of control | T/C (dose: 150.0 mg/kg/injection, schedule: Q04DX003 (ip), vehicle: other): 101 % of control | T/C (dose: 300.0 mg/kg/injection, schedule: Q04DX003 (ip), vehicle: other): 100 % of control | T/C (dose: 600.0 mg/kg/injection, schedule: Q04DX003 (ip), vehicle: other): 105 % of control | T/C (dose: 1200.0 mg/kg/injection, schedule: Q04DX003 (ip), vehicle: other): 101 % of control

[Cl][Hg][Cl]
T/C (dose: 0.63 mg/kg/injection, schedule: Q04DX003 (ip), vehicle: saline): 88 % of control and 96 % of control | T/C (dose: 2.5 mg/kg/injection, schedule: Q04DX003 (ip), vehicle: saline): 95 % of control | T/C (dose: 5.0 mg/kg/injection, schedule: Q04DX003 (ip), vehicle: saline): 91 % of control

CCCCCCSc1nc(COC(=O)NC)c(COC(=O)NC)n1C
T/C (dose: 16.85 mg/kg/injection, schedule: Q04DX003 (ip), vehicle: saline): 102 % of control | T/C (dose: 33.7 mg/kg/injection, schedule: Q04DX003 (ip), vehicle: saline): 90 % of control | T/C (dose: 67.5 mg/kg/injection, schedule: Q04DX003 (ip), vehicle: saline): 93 % of control | T/C (dose: 135.0 mg/kg/injection, schedule: Q04DX003 (ip), vehicle: saline): 107 % of control | T/C (dose: 270.0 mg/kg/injection, schedule: Q04DX003 (ip), vehicle: saline): 123 % of control
